Experimental data: patent publication US20250281496A1, “METHODS OF TREATING NEUROPATHY USING FORETINIB AND COMPOSITIONS THEREOF” (INDIANA UNIVERSITY RESEARCH AND TECHNOLOGY CORPORATION, priority 2022, published 2025)

Key:
[1] = mouse, in vivo, ip, 20 days
Method: A) Quantitative representation of changes in mouse body weight in dependence of the indicated IP daily doses of Foretinib (n=2 per dose). B) Changes in mouse blood plasma concentration of 5 mg/kg IP injected Foretinib during 48 hours after a single injection (n=3).
It is expected that Foretinib will protect against the diabetes-induced loss of terminal axons and ensheathing SC. In our previous study, 30 mg/kg of foretinib was administered via daily gavage for a course of 5 weeks. Although reported as non-toxic, at this dose the drug, along with a strong neuroprotective effect, caused lethargic behavior, ruffled fur and weight loss requiring early termination of the experiment. Due to the substantial prevalence of type 2 diabetes, we will examine the effect of foretinib treatment on type 2 diabetic mice (db/db). To define the maximal tolerable dose, we treated wt mice by daily intraperitoneal (IP) injection of several various dosages of foretinib for 20 days, while assessing the mice weight and behavior. […] Next, to define the pharmacokinetic (PK) characteristics of the drug, we performed a mass spectrometry analysis of blood samples from wt mice treated with 5 mg/kg (n=3 mice per dose per time point). We observed that IP injection of 5 mg/kg of foretinib generated nearly 100 ng/ml blood concentration during first 4 hours, declining by 4 ng/ml/hour (FIG. 7B).

[2] = system: human iPSC-derived cultured MNs; assay: Thapsigargin- and Tunicamycin-induced death of human iPSC-derived motor neurons; assay type: cell-based; conditions: 1 μM Thapsigargin or 1 μM Tunicamycin, 0.5 uM Foretinib, 48 hrs
Method: A) Rat sympathetic neurons grown in compartmented cultures for one week in the presence of NGF were switched into the indicated conditions for 48 h and immunostained for βIII-tubulin (white). Schematics on the left show the configurations used. In the top panels, NGF was maintained in all compartments. In the center and bottom panels, NGF was withdrawn from all compartments. At the bottom panel and 500 nM foretinib (Foret) added to one of the sides and the center compartment. Fluorescence images show βIII-tubulin-positive axons in the sides compartment. At the right, enlarged images of the axons per condition. While the NGF deprived neurons degenerated (axonal beading and degradation in the central panel), Foretinib supplemented (lower panel) axons kept growing Red arrow at the top of the image indicates the distance of the axonal extension during 48 h since NGF withdrawal. Size bar: […].B) MNs were differentiated from healthy human iPS (Line ID 1016A)^62 as described^63. 3 day old MNs were treated with either 1 μM of Thapsigargin (Thaps) or 1 μM Tunicamycin (Tuni) and/or with either 0.5 uM of Foretinib. […] C) Quantitative representation of the results as in B. Error bars represent standard error; *p<0.05; ***p<0.005; t-test. […] E) Quantitative representation of changes in mouse body weight in dependence of the indicated IP daily doses of Foretinib.

[3] = system: experimental diabetic neuropathy; assay: Intraepidermal nerve fiber density (IENFD) in plantar skin of STZ-diabetic mice; assay type: in vivo
Method: (§1) The primary objective of these experiments was to determine the effect of oral Foretinib on cutaneous innervation density in an experimental diabetic neuropathy. The numbers of animals needed for these experiments were determined by power analysis based on preliminary experiments assessing the cutaneous innervation density in diabetic and non-diabetic mice. A 50% increased nerve fiber density compared to the diabetic control was considered scientifically relevant, requiring a minimum of n=5 animals per group to achieve a power of 0.9 when assuming a standard deviation (SD) of 0.01 for all groups (normally distributed, two-sided). Animals were randomly allocated to experimental groups prior to induction of diabetes and the investigators were blinded during outcome assessments. Two experimental animals allocated to the Foretinib treated group were excluded from the experiment after not responding to the STZ injections. No outliers were excluded from the analysis. After five weeks, the experiment was terminated because 4 of 8 animals reached a predefined humane endpoint of greater than 15% weight loss compared to their pre-diabetic weight. The scheduled experimental endpoint was 12 weeks post-STZ injection.
A total of 25 adult (24-28g), transgenic mice with a genetic black six background were included. […]

[4] = system: sympathetic and sensory neurons; assay: Neuroprotection in primary culture of sympathetic and sensory neurons (trophic deprivation); assay type: cell-based
[5] = Potential side effects and body weight under daily oral Foretinib in STZ-diabetic mice; assay type: in vivo
Method: as §1, with “injection. […]” for “injection.”

## COc1cc2c(Oc3ccc(NC(=O)C4(C(=O)Nc5ccc(F)cc5)CC4)cc3F)ccnc2cc1OCCCN1CCOCC1 [Foretinib, N1-[3-Fluoro-4-({6-methoxy-7-[3-(morpholin-4-yl)propoxy]quinolin-4-yl}oxy)phenyl]-N′1-(4-fluorophenyl)cyclopropane-1,1-dicarboxamide]
[1]
  maximal tolerable dose not affecting behavior and body weight: 5 mg/kg
[2]
  rescue of ER-stressor induced motor neuron death: rescued Thapsigargin-and Tunicamycin-induced death
[3]; 30 mg/kg oral daily, 5 weeks post-diabetes induction, versus other diabetic groups
  intraepidermal nerve fiber density (IENFD), plantar skin: similarly reduced IENFD
[3]; all diabetic groups incl. Foretinib 30 mg/kg/day oral, five weeks after diabetes induction
  reduction in epidermal nerve fiber density compared to healthy mice: 25%
[4]
  effective neuroprotective concentration: > 100 nM
[5]; 30 mg/kg oral daily, 5 weeks post-injection, group mean
  relative body weight change versus pre-diabetic weight: < −15%
[5]; 30 mg/kg orally via daily gavage, after four weeks of daily treatment
  signs of increased distress: lethargic behavior, ruffled fur, and weight loss
